Source: US20250320193A1, “OXOISOINDOLINYL SUBSTITUTED PIPERIDINEDIONE DERIVATIVE AND USE THEREOF” (GLUETACS THERAPEUTICS (SHANGHAI) CO., LTD., priority 2022, published 2025)

target: human Cereblon WT GST-tagged protein (Homo sapiens (Human), UniProt Q96SW2); experiment: CRBN-binding affinity, HTRF (CEREBLON BINDING kit, CISBIO); settings: HTRF inhibitory activity
Experimental: I. Determination of CRBN-binding affinity of compounds of the present disclosure:
The CEREBLON BINDING kits (specification: 10,000 tests; product number: Catalog #64BDCRBNPEH; CISBIO company) was used to determine the CRBN binding ability of the compounds to be tested through a HTRF method (homogeneous time-resolved fluorescence). The specific methods are as follows: • 1. […] Then, 2.5 μL of human Cereblon WT GST-tagged protein solution was added to each well. Finally, 5 μL of the thoroughly mixed Thalidomide-Red reagent and GST Eu antibody working solution were added to each of the aforementioned wells. […] The blank control wells were sequentially added with 2.5 μL of diluent #9 (1X) solution, 2.5 μL of PROTAC binding buffer, and 5 μL of thoroughly mixed Thalidomide-Red reagent and GST Eu antibody working solution. • 4.
The corresponding CRBN binding inhibition rate was calculated using the following method: […]
OD 620 nmcompound is the absorbance value of each well of the compounds to be tested of the present disclosure at an emission wavelength of 620 nm. […] OD 620 nmcontrol is the absorbance value of the blank control well at an emission wavelength of 620 nm. […] OD 620 nmStd0 is the absorbance value of the solvent control well at an emission wavelength of 620 nm.

Sequence of human Cereblon WT GST-tagged protein (Q96SW2 whole entry): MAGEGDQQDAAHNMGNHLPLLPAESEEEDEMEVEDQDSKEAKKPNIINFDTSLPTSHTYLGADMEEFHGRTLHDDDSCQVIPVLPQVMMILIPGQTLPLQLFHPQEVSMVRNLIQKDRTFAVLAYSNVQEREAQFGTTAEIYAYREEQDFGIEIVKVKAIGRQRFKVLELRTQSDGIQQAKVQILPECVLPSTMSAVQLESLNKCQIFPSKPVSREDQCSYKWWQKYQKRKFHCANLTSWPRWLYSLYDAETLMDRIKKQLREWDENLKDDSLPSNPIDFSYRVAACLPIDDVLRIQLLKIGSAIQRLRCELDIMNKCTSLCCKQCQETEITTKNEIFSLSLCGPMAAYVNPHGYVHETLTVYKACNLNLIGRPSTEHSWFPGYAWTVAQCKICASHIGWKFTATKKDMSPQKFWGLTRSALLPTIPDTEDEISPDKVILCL

Row | Structure (SMILES) | IC50 [nM]
1 | O=C1CCC(N2Cc3cc(CN4CC5(CCN(C(c6ccccc6)c6ccccc6)CC5)C4)cc(F)c3C2=O)C(=O)N1 (stereo not drawn) [GT-05904, 3-(5-((7-benzhydryl-2,7-diazaspiro[3.5]nonan-2-yl)methyl)-7-fluoro-1-oxoisoindolin-2-yl)piperidine-2,6-dione] | 500 to 1000
2 | O=C1CCC(N2Cc3cc(NN4CCN(C(c5ccccc5)c5ccccc5)CC4)ccc3C2=O)C(=O)N1 (stereo not drawn) [GT-05743, 3-(5-((4-benzhydrylpiperazin-1-yl)amino)-1-oxoisoindolin-2-yl)piperidine-2,6-dione] | 1000 to 1900
3 | O=C1CCC(N2Cc3ccc(CN4CCN(C(c5ccc(Cl)cc5)c5ccc(Cl)cc5)CC4)cc3C2=O)C(=O)N1 (stereo not drawn) [GT-05735, 3-(6-((4-(bis(4-chlorophenyl)methyl)piperazin-1-yl)methyl)-1-oxoisoindolin-2-yl)piperidine-2,6-dione] | 1000 to 1900
4 | O=C1CCC(N2Cc3cc(CN4CC5(CCN(C(c6ccccc6)c6ccccc6)CC5)C4)ccc3C2=O)C(=O)N1 (stereo not drawn) [GT-05901, 3-(5-((7-benzhydryl-2,7-diazaspiro[3.5]nonan-2-yl)methyl)-1-oxoisoindolin-2-yl)piperidine-2,6-dione] | < 500
5 | O=C1CCC(N2Cc3cccc(CN4CCN(C(c5ccc(F)cc5)c5ccc(F)cc5)CC4)c3C2=O)C(=O)N1 (stereo not drawn) [GT-05720, 3-(7-((4-(bis(4-fluorophenyl)methyl)piperazin-1-yl)methyl)-1-oxoisoindolin-2-yl)piperidine-2,6-dione] | 1000 to 1900
6 | O=C1CCC(N2Cc3c(C(=O)N4CCN(C(c5ccc(Cl)cc5)c5ccc(Cl)cc5)CC4)cccc3C2=O)C(=O)N1 (stereo not drawn) [GT-05985, 3-(4-(4-(bis(4-chlorophenyl)methyl)piperazine-1-carbonyl)-1-oxoisoindolin-2-yl)piperidine-2,6-dione] | 500 to 1000
7 | O=C1CCC(N2Cc3c(ccc(CN4CCN(C(c5cccnc5)c5cccnc5)CC4)c3F)C2=O)C(=O)N1 (stereo not drawn) [GT-05716, 3-(5-((4-(di(pyridin-3-yl)methyl)piperazin-1-yl)methyl)-4-fluoro-1-oxoisoindolin-2-yl)piperidine-2,6-dione] | < 500
8 | O=C1CCC(N2Cc3ccc(CN4CCN(C(c5ccc(F)cc5)c5ccc(F)cc5)CC4)cc3C2=O)C(=O)N1 (stereo not drawn) [GT-05719, 3-(6-((4-(bis(4-fluorophenyl)methyl)piperazin-1-yl)methyl)-1-oxoisoindolin-2-yl)piperidine-2,6-dione] | 500 to 1000
9 | O=C1CCC(N2Cc3cc(CN4CCN(C(c5ccc(Cl)cc5)c5ccc(Cl)cc5)CC4)cc(F)c3C2=O)C(=O)N1 (stereo not drawn) [GT-03568, 3-(5-((4-(bis(4-chlorophenyl)methyl)piperazin-1-yl)methyl)-7-fluoro-1-oxoisoindolin-2-yl)piperidine-2,6-dione] | 1000 to 1900
10 | O=C1CCC(N2Cc3cc(C(=O)N4CC5CCC4CN5C(c4ccccc4)c4ccccc4)ccc3C2=O)C(=O)N1 (stereo not drawn) [GT-06056, 3-(5-(5-benzhydryl-2,5-diazabicyclo[2.2.2]octane-2-carbonyl)-1-oxoisoindolin-2-yl)piperidine-2,6-dione] | < 500
11 | O=C1CCC(N2Cc3cc(CN4CCC5(CC4)CCN(C(c4ccccc4)c4ccccc4)CC5)c(F)cc3C2=O)C(=O)N1 (stereo not drawn) [GT-06025, 3-(5-((9-benzhydryl-3,9-diazaspiro[5.5]undecan-3-yl)methyl)-6-fluoro-1-oxoisoindolin-2-yl)piperidine-2,6-dione] | 500 to 1000
12 | O=C1CCC(N2Cc3cc(CN4CCN(C(c5ccccn5)c5ccccn5)CC4)cc(F)c3C2=O)C(=O)N1 (stereo not drawn) [GT-05714, 3-(5-((4-(di(pyridin-2-yl)methyl)piperazin-1-yl)methyl)-7-fluoro-1-oxoisoindolin-2-yl)piperidine-2,6-dione] | 1000 to 1900
13 | O=C1CCC(N2Cc3c(CN4CCN(C(c5cccc(F)c5)c5cccc(F)c5)CC4)cccc3C2=O)C(=O)N1 (stereo not drawn) [GT-03875, 3-(4-((4-(bis(3-fluorophenyl)methyl)piperazin-1-yl)methyl)-1-oxoisoindolin-2-yl)piperidine-2,6-dione] | 500 to 1000
14 | CC1(C)CN(Cc2ccc3c(c2F)CN(C2CCC(=O)NC2=O)C3=O)CCN1C(c1ccccc1)c1ccccc1 (stereo not drawn) [GT-04166, 3-(5-((4-benzhydryl-3,3-dimethylpiperazin-1-yl)methyl)-4-fluoro-1-oxoisoindolin-2-yl)piperidine-2,6-dione] | 500 to 1000
15 | O=C1CCC(N2Cc3cc(CN4C[C@H]5C[C@@H]4CN5C(c4ccccc4)c4ccccc4)c(F)cc3C2=O)C(=O)N1 (stereo partly drawn) [GT-05958, 3-(5-(((1R,4R)-5-benzhydryl-2,5-diazabicyclo[2.2.1]heptan-2-yl)methyl)-6-fluoro-1-oxoisoindolin-2-yl)piperidine-2,6-dione] | 500 to 1000
16 | CC1CN(C(=O)c2cc(F)c3c(c2)CN(C2CCC(=O)NC2=O)C3=O)CC(C)N1C(c1ccccc1)c1ccccc1 (stereo not drawn) [GT-06060, 3-(5-(4-benzhydryl-3,5-dimethylpiperazine-1-carbonyl)-7-fluoro-1-oxoisoindolin-2-yl)piperidine-2,6-dione] | 500 to 1000
17 | O=C1CCC(N2Cc3cc(C(=O)N4CC5CCC4CN5C(c4ccccc4)c4ccccc4)cc(F)c3C2=O)C(=O)N1 (stereo not drawn) [GT-06057, 3-(5-(5-benzhydryl-2,5-diazabicyclo[2.2.2]octane-2-carbonyl)-7-fluoro-1-oxoisoindolin-2-yl)piperidine-2,6-dione] | < 500
18 | O=C1CCC(N2Cc3c(C(=O)N4CCN(C(c5ccccc5)c5ccccc5)CC4)cccc3C2=O)C(=O)N1 (stereo not drawn) [GT-05721, 3-(4-(4-benzhydrylpiperazine-1-carbonyl)-1-oxoisoindolin-2-yl)piperidine-2,6-dione] | 500 to 1000
19 | O=C1CCC(N2Cc3cc(CN4CC5CCC4CN5C(c4ccccc4)c4ccccc4)cc(F)c3C2=O)C(=O)N1 (stereo not drawn) [GT-05964, 3-(5-((5-benzhydryl-2,5-diazabicyclo[2.2.2]octan-2-yl)methyl)-7-fluoro-1-oxoisoindolin-2-yl)piperidine-2,6-dione] | 500 to 1000
20 | O=C1CCC(N2Cc3c(ccc(C4=CCN(C(c5ccccc5)c5ccccc5)CC4)c3F)C2=O)C(=O)N1 (stereo not drawn) [GT-06072, 3-(5-(1-benzhydryl-1,2,3,6-tetrahydropyridin-4-yl)-4-fluoro-1-oxoisoindolin-2-yl)piperidine-2,6-dione] | < 500
21 | O=C1CCC(N2Cc3cc(CN4CCN(C(c5ccccc5)c5ccncc5)CC4)cc(F)c3C2=O)C(=O)N1 (stereo not drawn) [GT-06135, 3-(7-fluoro-1-oxo-5-((4-(phenyl(pyridin-4-yl)methyl)piperazin-1-yl)methyl)isoindolin-2-yl)piperidine-2,6-dione] | < 500
22 | O=C1CCC(N2Cc3ccc(C(=O)N4CCN(C(c5cccc(F)c5)c5cccc(F)c5)CC4)cc3C2=O)C(=O)N1 (stereo not drawn) [GT-06149, 3-(6-(4-(bis(3-fluorophenyl)methyl)piperazine-1-carbonyl)-1-oxoisoindolin-2-yl)piperidine-2,6-dione] | 500 to 1000
23 | O=C1CCC(N2Cc3ccc(CN4CCN(C(c5ccccc5)c5ccccc5)CC4)cc3C2=O)C(=O)N1 (stereo not drawn) [GT-05686, 3-(6-((4-benzhydrylpiperazin-1-yl)methyl)-1-oxoisoindolin-2-yl)piperidine-2,6-dione] | 1000 to 1900
24 | C[C@@H]1CN(C(c2ccccc2)c2ccccc2)CCN1Cc1cc(F)c2c(c1)CN(C1CCC(=O)NC1=O)C2=O (stereo partly drawn) [GT-03577, 3-(5-(((R)-4-benzhydryl-2-methylpiperazin-1-yl)methyl)-7-fluoro-1-oxoisoindolin-2-yl)piperidine-2,6-dione] | < 500
25 | O=C1CCC(N2Cc3cc(CN4CCC5(CCN(C(c6ccccc6)c6ccccc6)CC5)C4)cc(F)c3C2=O)C(=O)N1 (stereo not drawn) [GT-05972, 3-(5-((8-benzhydryl-2,8-diazaspiro[4.5]decan-2-yl)methyl)-7-fluoro-1-oxoisoindolin-2-yl)piperidine-2,6-dione] | 1000 to 1900
26 | O=C1CCC(N2Cc3cc(C(=O)N4C[C@H]5C[C@@H]4CN5C(c4ccccc4)c4ccccc4)ccc3C2=O)C(=O)N1 (stereo partly drawn) [GT-05990, 3-(5-((1R,4R)-5-benzhydryl-2,5-diazabicyclo[2.2.1]heptane-2-carbonyl)-1-oxoisoindolin-2-yl)piperidine-2,6-dione] | < 500
27 | O=C1CCC(N2Cc3c(ccc(C4CCN(C(c5ccccc5)c5ccccc5)CC4)c3F)C2=O)C(=O)N1 (stereo not drawn) [GT-06136, 3-(5-(1-benzhydrylpiperidin-4-yl)-4-fluoro-1-oxoisoindolin-2-yl)piperidine-2,6-dione] | < 500
28 | O=C1CCC(N2Cc3cc(C(=O)N4C[C@H]5C[C@@H]4CN5C(c4ccccc4)c4ccccc4)cc(F)c3C2=O)C(=O)N1 (stereo partly drawn) [GT-05991, 3-(5-((1R,4R)-5-benzhydryl-2,5-diazabicyclo[2.2.1]heptane-2-carbonyl)-7-fluoro-1-oxoisoindolin-2-yl)piperidine-2,6-dione] | < 500
29 | CC1(C)CN(C(=O)c2cc(F)c3c(c2)CN(C2CCC(=O)NC2=O)C3=O)CCN1C(c1ccccc1)c1ccccc1 (stereo not drawn) [GT-06062, 3-(5-(4-benzhydryl-3,3-dimethylpiperazine-1-carbonyl)-7-fluoro-1-oxoisoindolin-2-yl)piperidine-2,6-dione] | 500 to 1000
30 | O=C1CCC(N2Cc3c(ccc(CN4C[C@H]5C[C@@H]4CN5C(c4ccccc4)c4ccccc4)c3F)C2=O)C(=O)N1 (stereo partly drawn) [GT-03573, 3-(5-(((1R,4R)-5-benzhydryl-2,5-diazabicyclo[2.2.1]heptan-2-yl)methyl)-4-fluoro-1-oxoisoindolin-2-yl)piperidine-2,6-dione] | < 500
